Assay results published in paper PMC8482806, “A Novel Blood-Brain Barrier-Permeable Chemotherapeutic Agent for the Treatment of Glioblastoma” (Cureus, 2021).

Biological target: T1, hLAT2 (Homo sapiens, UniProt Q9UHI5)
T1 construct: host or cells: LLC-PK1 (tetracycline-inducible, Invitrogen Gateway pT-REx System)
T1 sequence (Q9UHI5 1-535): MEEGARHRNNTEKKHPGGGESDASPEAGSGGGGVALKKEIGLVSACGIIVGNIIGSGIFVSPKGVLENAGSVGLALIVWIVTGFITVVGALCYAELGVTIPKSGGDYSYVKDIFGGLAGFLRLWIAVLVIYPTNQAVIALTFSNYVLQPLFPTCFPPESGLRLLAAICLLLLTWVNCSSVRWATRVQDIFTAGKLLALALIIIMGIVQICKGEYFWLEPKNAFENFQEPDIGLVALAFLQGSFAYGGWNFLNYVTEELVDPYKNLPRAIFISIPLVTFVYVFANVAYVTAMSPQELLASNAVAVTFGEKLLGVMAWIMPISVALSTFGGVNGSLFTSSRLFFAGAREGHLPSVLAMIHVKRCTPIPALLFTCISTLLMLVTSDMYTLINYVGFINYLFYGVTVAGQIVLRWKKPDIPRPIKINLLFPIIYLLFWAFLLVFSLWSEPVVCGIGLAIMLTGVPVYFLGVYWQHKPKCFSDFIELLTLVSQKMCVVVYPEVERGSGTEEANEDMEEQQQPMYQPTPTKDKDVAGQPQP
T1 sequence (P08195 1-529 partner): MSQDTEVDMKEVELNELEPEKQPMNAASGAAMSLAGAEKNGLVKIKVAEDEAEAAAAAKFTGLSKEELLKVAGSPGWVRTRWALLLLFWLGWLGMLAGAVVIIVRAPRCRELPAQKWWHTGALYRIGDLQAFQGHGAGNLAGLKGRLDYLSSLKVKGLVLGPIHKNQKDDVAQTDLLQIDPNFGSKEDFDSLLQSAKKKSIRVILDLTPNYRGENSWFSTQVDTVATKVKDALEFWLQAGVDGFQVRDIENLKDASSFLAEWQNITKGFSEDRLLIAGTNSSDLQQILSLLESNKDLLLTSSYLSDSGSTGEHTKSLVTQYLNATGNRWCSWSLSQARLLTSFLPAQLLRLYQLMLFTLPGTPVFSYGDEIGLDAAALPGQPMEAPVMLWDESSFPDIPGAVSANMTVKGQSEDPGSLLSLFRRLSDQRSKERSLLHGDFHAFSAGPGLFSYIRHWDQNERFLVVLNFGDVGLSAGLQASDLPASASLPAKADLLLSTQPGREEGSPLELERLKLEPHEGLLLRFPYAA
Experiment: Substrate transport inhibition, [3H]-leucine uptake in LLC-PK1 cells expressing hLAT2
Assay type: cell-based
Details: [3H]-leucine, LLC-PK1 LAT2-expressing cells, 15 minutes at room temperature; read-out: IC50, inhibition of substrate transport (LAT2)
Experimental: Substrate transport inhibition studies were conducted with LLC-PK1 cells inducibly expressing either hLAT1 or hLAT2. Cells were plated in growth media with 1 μg/mL doxycycline at 30,000 cells/well in 96-well plates. Sixteen hours after plating, cells were treated with butyrate at a final concentration of 5 mM. The following day, cells were washed with PBS and incubated in the presence or absence of various concentrations of QBS10072S with 30,000 cpm/well of either [3H]-gabapentin (LAT1) or [3H]-leucine (LAT2) in PBS for 15 minutes at room temperature. The non-specific cell-bound activity was determined by the addition of 5 mM unlabeled gabapentin (LAT1) or leucine (LAT2). Unincorporated radioactivity was removed, and cells were washed three times with ice-cold PBS. Cells were lysed by adding scintillation fluid to each well, and cell-associated radioactivity was determined via scintillation counting using a multichannel 96-well plate reader (MicroBeta Trilux, Perkin Elmer, Waltham, MA). Data were expressed as the percent of specific radioactivity uptake in wells with no compound added. LC50s were determined by non-linear curve-fitting using GraphPad Prism (San Diego, CA).

Cc1ccc(N(CCCl)CCCl)cc1C[C@H](N)CC(=O)O [QBS10072S, (+)-(3S)-amino-4-[5-[bis(2-chloroethyl)amino]-2-methyl-phenyl]butanoic acid]
IC50: 1.1 mM
